Structures can show the parent of a compound that is named as a salt. A value given as a limit tells only on which side of the number the result lay.

System in the first data set: not given
Test: not given
Conditions: not given
With `O=c1c2ccc(-c3cccc(C4CC4)c3)cc2cnn1-c1ccccn1` [1-22, 6-(3-Cyclopropylphenyl)-2-(pyridin-2-yl)phthalazin-1(2H)-one], the melting point is 181 to 184 °C.

The target in another data set is T1, human mGlu7 (Homo sapiens, UniProt Q14831).
T1 construct: expressed in transfected cells
T1 sequence (Q14831 35-922 isoform Q14831-2 limits assumed): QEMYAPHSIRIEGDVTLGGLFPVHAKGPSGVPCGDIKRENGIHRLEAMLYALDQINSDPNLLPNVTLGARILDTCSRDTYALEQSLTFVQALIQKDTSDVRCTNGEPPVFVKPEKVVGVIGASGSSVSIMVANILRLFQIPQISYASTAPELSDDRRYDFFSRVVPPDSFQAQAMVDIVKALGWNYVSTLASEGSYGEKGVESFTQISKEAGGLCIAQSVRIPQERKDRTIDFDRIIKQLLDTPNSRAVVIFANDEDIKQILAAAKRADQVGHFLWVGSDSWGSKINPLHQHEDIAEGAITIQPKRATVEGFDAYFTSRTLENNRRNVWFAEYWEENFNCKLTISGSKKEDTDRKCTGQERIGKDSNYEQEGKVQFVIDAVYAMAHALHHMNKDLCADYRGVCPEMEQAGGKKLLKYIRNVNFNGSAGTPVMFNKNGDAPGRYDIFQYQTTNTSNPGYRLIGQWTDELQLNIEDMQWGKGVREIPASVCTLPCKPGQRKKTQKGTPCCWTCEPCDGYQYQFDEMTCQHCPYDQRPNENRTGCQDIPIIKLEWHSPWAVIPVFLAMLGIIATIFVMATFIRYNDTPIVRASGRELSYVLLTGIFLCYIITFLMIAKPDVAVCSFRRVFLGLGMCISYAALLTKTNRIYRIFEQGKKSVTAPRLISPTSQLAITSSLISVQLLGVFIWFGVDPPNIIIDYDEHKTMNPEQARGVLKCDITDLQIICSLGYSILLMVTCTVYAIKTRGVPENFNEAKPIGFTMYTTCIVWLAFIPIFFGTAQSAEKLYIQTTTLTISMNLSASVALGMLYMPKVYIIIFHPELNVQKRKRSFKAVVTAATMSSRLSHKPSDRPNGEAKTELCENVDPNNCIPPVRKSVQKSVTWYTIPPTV
Put plainly: mGlu7 assay on HEK-expressing human mGlu7: fluorescent cell-based Ca2+ mobilization (FLIPR384), inhibition of EC80 L-AP4 response. Particulars: HEK-293 cells expressing hmGlu7, EC80 L-AP4 stimulation; mean of at least three independent experiments in duplicate; read-out: Ca^2+ Flux (mean IC50). An excerpt:
mGlu7 Assay on HEK-Expressing Human mGlu7
The cDNA encoding the human metabotropic glutamate 7 receptor (hmGlu7), (accession number NM_181874.2, NCBI Nucleotide database browser), was subcloned into an expression vector containing also the hygromycin resistance gene. In parallel, the cDNA encoding a G protein allowing redirection of the activation signal to intracellular calcium flux was subcloned into a different expression vector containing also the Puromycin resistance gene. Transfection of both these vectors into HEK293 cells with PolyFect reagent (Qiagen) according to supplier's protocol, and hygromycin and puromycin treatment allowed selection of antibiotic resistant cells which had integrated stably one or more copies of the plasmids. Positive cellular clones expressing hmGlu7 were identified in a functional assay measuring changes in calcium fluxes in response to glutamate and L-AP4 or known mGlu7 orthosteric antagonists.
HEK-293 cells expressing hmGlu7 were maintained in media containing DMEM, Fetal Bovine Serum (10%), Glutamax™ (2 mM), penicillin (100 units/mL), streptomycin (100 μg/mL), geneticin (100 μg/mL) and hygromycin-B (40 μg/mL) and puromycin (1 μg/mL) at 37° C. with 5% CO2 in a humidified atmosphere.
Fluorescent Cell Based- Ca^+ Mobilization Assay Human mGlu7 HEK-293 cells were plated out 24 hours prior to a fluorescent cell-based calcium mobilization assay using FLIPR^384 assay (Molecular Device, Sunnyvale, CA, USA) in black-walled, clear-bottomed, poly-L-ornithine-coated 384-well plates at a density of 25,000 cells/well in a glutamine/glutamate free DMEM medium containing fetal bovine serum (10%), penicillin (100 units/mL), streptomycin (100 μg/mL) and doxycyline (1 μg/ml) at 37° C. with 5% CO2 in a humidified atmosphere.
On the day of the assay, the medium was aspirated and the cells were loaded with a 3 μM solution of Fluo4-AM (LuBioScience, Lucerne, Switzerland) in 0.03% pluronic acid. After 1 hour at 37° C./5% CO2, the non incorporated dye was removed by washing cell plate with the assay buffer. All assays were performed in a pH 7.4 buffered-solution containing 20 mM HEPES, 143 mM NaCl, 6 mM KCl, 1 mM MgSO4, 1 mM CaCl2, 0.125 mM sulfinpyrazone and 0.1% glucose.
After 10 s of basal fluorescence recording, various concentrations of the compounds of the invention were added to the cells. Changes in fluorescence levels were first monitored for 180 s in order to detect any agonist activity of the compounds. Then the cells were stimulated by an EC80 L-AP4 concentration for an additional 110 s in order to measure inhibiting activities of the compounds of the invention. EC80 L-AP4 concentration is the concentration giving 80% of the maximal glutamate response.
The concentration-response curves of L-AP4 or representative compounds of the present invention were generated using the Prism GraphPad software (Graph Pad Inc, San Diego, USA). The curves were fitted to a four-parameter logistic equation: […]
allowing determination of IC50 values.
The Table 3 below represents the mean IC50 obtained from at least three independent experiments of selected molecules performed in duplicate.
Take `O=c1c2ccc(-c3cccc(C4CC4)c3)cc2cnn1-c1ccccn1` [1-22, 6-(3-Cyclopropylphenyl)-2-(pyridin-2-yl)phthalazin-1(2H)-one]: the IC50 is 100 to 1000 nM.
Regarding `COc1cccc(-c2ccc3c(=O)n(-c4ncc(N5CCCC(O)C5)cn4)ncc3c2)c1C` (stereo not shown) [1-73], the IC50 was under 100 nM.
Turning to `COc1cccc(-c2ccc3c(=O)n(-c4ncc(NC5CCC(O)CC5)cn4)ncc3c2)c1C` (stereo not shown) [1-74], the IC50 was under 100 nM.
Still for that read-out and setting: the result for `COc1cccc(-c2ccc3c(=O)n(-c4ncc(NC5CCCC(O)C5)cn4)ncc3c2)c1C` (stereo not shown) [1-75] reads under 100 nM.
As to `O=c1c2ccc(-c3cccc(N4CCC4)c3)cc2cnn1-c1ncc(F)cn1` [1-76], the IC50 is under 100 nM.
As for `Cc1c(-c2ccc3c(=O)n(-c4ccccn4)ncc3c2)cccc1N1CCC1` [1-77], the IC50 is under 100 nM.
The same measure, in the same setting: the same measure for `COc1cccc(-c2ccc3c(=O)n(-c4ncc(N5CCSCC5)cn4)ncc3c2)c1C` [1-78]: 100 to 1000 nM; for `COCCNc1cnc(-n2ncc3cc(-c4cccc(OC)c4C)ccc3c2=O)nc1` [1-79]: under 100 nM; for `COc1cccc(-c2ccc3c(=O)n(-c4ncc(NCCN(C)C)cn4)ncc3c2)c1C` [1-80]: under 100 nM.
On the same count and under the same terms, the same measure for `Cc1ccc(-c2ccc3c(=O)n(-c4ncc(N5CCOCC5)cn4)ncc3c2)c(C)c1` [1-81]: 100 to 1000 nM; for `Cc1ccc(-c2ccc3c(=O)n(-c4ncc(N5CCC(O)C5)cn4)ncc3c2)c(C)c1` (stereo not shown) [1-82]: under 100 nM; for `O=c1c2ccc(-c3cccc(N4CCC4)c3)cc2cnn1-c1ncc(N2CCC(O)C2)cn1` (stereo not shown) [1-83]: 100 to 1000 nM.
On the same count and under the same terms, the result for `COc1cccc(-c2ccc3c(=O)n(-c4ncc(N5CC6(COC6)C5)cn4)ncc3c2)c1C` [1-84, 2-(5-(2-Oxa-6-azaspiro[3.3]heptan-6-yl)pyrimidin-2-yl)-6-(3-methoxy-2-methylphenyl)phthalazin-1(2H)-one] reads 100 to 1000 nM; that for `CCOc1cnc(-n2ncc3cc(-c4cccc(OC)c4C)ccc3c2=O)nc1` [1-85], under 100 nM; that for `COc1cccc(-c2ccc3c(=O)n(-c4ncc(NC5CCC(O)C5)cn4)ncc3c2)c1C` (stereo not shown) [1-87], under 100 nM.
In the case of `COc1cccc(-c2ccc3c(=O)n(-c4ncc(NCC(C)(C)O)cn4)ncc3c2)c1C` [1-88], the IC50 is under 100 nM.
The same measure, in the same setting: the same measure for `COc1cccc(-c2ccc3c(=O)n(-c4ncc(Cl)cn4)ncc3c2)c1C` [1-90]: under 100 nM.
For the molecule `COc1cccc(-c2ccc3c(=O)n(-c4ccc(S(C)(=N)=O)cn4)ncc3c2)c1C` (stereo not shown) [1-91], the IC50 is under 100 nM.
On the same count and under the same terms, the same measure for `COc1cccc(-c2ccc3c(=O)n(-c4ccc(C(=O)NCC(C)(C)O)cn4)ncc3c2)c1C` [1-92]: under 100 nM.
For `COc1cccc(-c2ccc3c(=O)n(-c4ccc(C(=O)N5CCC(O)C5)cn4)ncc3c2)c1C` (stereo not shown) [1-93], the IC50 was under 100 nM.
On the same count and under the same terms, the same measure for `COc1cccc(-c2ccc3c(=O)n(-c4ccc(C(=O)NC5CCC(O)C5)cn4)ncc3c2)c1C` (stereo not shown) [1-94]: under 100 nM; for `COc1cccc(-c2ccc3c(=O)n(-c4ncc(NCCN5CCCC5)cn4)ncc3c2)c1C` [1-95]: 100 to 1000 nM.
The same measure, in the same setting: the result for `COc1cccc(-c2ccc3c(=O)n(-c4ncc(NCC(C)(C)N(C)C)cn4)ncc3c2)c1C` [1-96] reads 100 to 1000 nM; that for `COc1cccc(-c2ccc3c(=O)n(-c4ncc(NCCn5ccnc5)cn4)ncc3c2)c1C` [1-97], under 100 nM.
`COc1cccc(-c2ccc3c(=O)n(-c4ccc(NC(=O)[C@@H](N)C(C)C)cn4)ncc3c2)c1C` [1-98, (S)-2-Amino-N-(6-(6-(3-methoxy-2-methylphenyl)-1-oxophthalazin-2(1H)-yl)pyridin-3-yl)-3-methylbutanamide hydrochloride]: the IC50 is 100 to 1000 nM.
As for `COc1cccc(-c2ccc3c(=O)n(-c4ccc(NC(=O)[C@@H]5CCCN5)cn4)ncc3c2)c1C` [1-99], the IC50 fell in the range of 100 to 1000 nM.
Same read-out and setting: the same measure for `COc1cccc(-c2ccc3c(=O)n(-c4ncc(NC(C)(C)CO)cn4)ncc3c2)c1C` [1-100]: under 100 nM; for `COc1cccc(-c2ccc3c(=O)n(-c4ncc(N5CCC(N(C)C)C5)cn4)ncc3c2)c1C` (stereo not shown) [1-101]: 100 to 1000 nM.
Same read-out and setting: the same measure for `COc1cccc(-c2ccc3c(=O)n(-c4ccc(NC(=O)[C@@H](N)CO)cn4)ncc3c2)c1C` [1-102]: under 100 nM; for `COc1cccc(-c2ccc3c(=O)n(-c4ncc(N5CCCC(N(C)C)C5)cn4)ncc3c2)c1C` (stereo not shown) [1-103]: 100 to 1000 nM.
As for `COc1cccc(-c2ccc3c(=O)n(-c4ncc(NC(C)(C)CN(C)C)cn4)ncc3c2)c1C` [1-104], the IC50 was 100 to 1000 nM.
Take `CNCCNc1cnc(-n2ncc3cc(-c4cccc(OC)c4C)ccc3c2=O)nc1` [1-105]: the IC50 was in the range of 100 to 1000 nM.
The same measure, in the same setting: the result for `COc1cccc(-c2ccc3c(=O)n(-c4ncc(NCCn5cncn5)cn4)ncc3c2)c1C` [1-106] reads under 100 nM; that for `COc1cccc(-c2ccc3c(=O)n(-c4ncc(NC5CCN(C)C5)cn4)ncc3c2)c1C` (stereo not shown) [1-107], under 100 nM; that for `CN1CCCc2c(-c3ccc4c(=O)n(-c5ncccn5)ncc4c3)cccc21` [1-108], under 100 nM.
The same measure, in the same setting: the result for `COCC(C)(C)Nc1cnc(-n2ncc3cc(-c4cccc(OC)c4C)ccc3c2=O)nc1` [1-109] reads under 100 nM; that for `COc1cccc(-c2ccc3c(=O)n(-c4ncc(NCC(C)(C)OC)cn4)ncc3c2)c1C` [1-110, 6-(3-Methoxy-2-methylphenyl)-2-(5-((2-methoxy-2-methylpropyl)amino)pyrimidin-2-yl)phthalazin-1(2H)-one], 100 to 1000 nM.
The same measure, in the same setting: the same measure for `COc1cccc(-c2ccc3c(=O)n(-c4ncccn4)ncc3c2)c1F` [1-111]: under 100 nM; for `COc1nccc(-c2ccc3c(=O)n(-c4ncccn4)ncc3c2)c1F` [1-112]: 1000 to 10000 nM.
